We go through 37 compounds from patent publication US20070054916A1, “Aryl nitrogen-containing bicyclic compounds and methods of use” (Amgen Inc., priority 2004, published 2007).

The subject of the assay is production of TNF by monocytes activated with bacterial lipopolysaccharide (LPS). Kind of assay: Lipopolysaccharide-activated monocyte TNF production assay. As to conditions: Homo sapiens, read-out: IC50 values in the monocyte assay (LPS induced TNF release). Format: cell-based. In short, it runs like this: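 Adherent human PBMC-derived monocytes (~70%) in DMEM/2% FCS were pre-incubated 60 min with nine two-fold compound dilutions, then stimulated with E. coli K532 LPS (added as 30 ng/ml solution) for 4 h at 37 °C. Supernatant TNF-α was measured by sandwich ELISA. IC50 was taken from a polynomial fit of TNF versus compound concentration.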

`Cc1ccc(C(=O)Nc2ccc(F)c(C(F)(F)F)c2)cc1-c1ccc2nc(N)ncc2c1` [Example 124, 3-(2-amino-6-quinazolinyl)-N-(4-fluoro-3-(trifluoromethyl)phenyl)-4-methylbenzamide]: the IC50 was not above 25 µM. Consider `Cc1ccc(C(=O)Nc2cccc(C(F)(F)F)c2C)cc1-c1ccc2nc(NCCN3CCOCC3)ncc2c1` [Example 28, 4-methyl-N-(2-methyl-3-(trifluoromethyl)phenyl)-3-(2-((2-(4-morpholinyl)ethyl)amino)-6-quinazolinyl) benzamide], for which the concentration for half-maximal inhibition (IC50) is not above 25 µM.

Turning to `Nc1ncc2cc(-c3cccc(C(=O)Nc4cccc(C(F)(F)F)c4)c3)ccc2n1` [Example 52, 3-(2-amino-6-quinazolinyl)-N-(3-(trifluoromethyl)phenyl)benzamide], the IC50 is not above 25 µM.

For `Cc1ccc(NC(=O)Nc2cccc(C(F)(F)F)c2)cc1-c1ccc2nc(N)ncc2c1` [Example 524, N-(3-(2-amino-6-quinazolinyl)-4-methylphenyl)-N′-(3-(trifluoromethyl)phenyl)urea], the IC50 was not above 25 µM. On to `CNc1ncc2cc(-c3cccc(NC(=O)c4cc(F)cc(C(F)(F)F)c4)c3C)cnc2n1` [Example 219], for which the IC50 was not above 25 µM. `Cc1ccc(C(=O)NCCc2cccnc2)cc1-c1ccc2nc(N)ncc2c1` [Example 427, 3-(2-amino-6-quinazolinyl)-4-methyl-N-(2-(3-pyridinyl)ethyl)b enzamide]: the IC50 was not above 25 µM. With `Cc1cc(NC(=O)c2ccc(C)c(-c3ccc4nc(N)ncc4c3)c2)c(N(C)CCCN(C)C)cc1C` [Example 116, 3-(2-amino-6-quinazolinyl)-N-(2-((3-(dimethylamino)propyl)(methyl)amino)-4,5-dimethylphenyl)-4-methylbenzamide] the figure was not above 25 µM. With `Cc1ccc(NC(=O)c2ccc(C)c(-c3ccc4nc(N)ncc4c3)c2)cc1NC(=O)CN1CCOCC1` [Example 62, 3-(2-amino-6-quinazolinyl)-4-methyl-N-(4-methyl-3-((4-morpholinylacetyl)amino)phenyl) benzamide] the figure was not above 25 µM; with `COc1ccc(OCCCN2CCN(C)CC2)cc1NC(=O)c1ccc(C)c(-c2ccc3nc(N)ncc3c2)c1` [Example 235], not above 25 µM.

In the case of `CCN(CC)CCNC(=O)c1cc(NC(=O)c2ccc(C)c(-c3ccc4nc(N)ncc4c3)c2)cc(C(F)(F)F)c1` [Example 7], the IC50 is not above 25 µM.

Consider `CN(C)CCCN(C)c1ccc(C(F)(F)F)cc1NC(=O)c1cc(-c2ccc3nc(N)ncc3c2)ccc1F` [Example 84, 5-(2-amino-6-quinazolinyl)-N-(2-((3-(dimethylamino)propyl)(methyl)amino)-5-(trifluoromethyl)phenyl)-2-fluorobenzamide], for which the IC50 was not above 25 µM. Consider `Cc1c(NC(=O)c2cc(C(F)(F)F)cc(C(F)(F)F)c2)cccc1-c1ccc2nc(N)ncc2c1` [Example 220, N-(3-(2-amino-6-quinazolinyl)-2-methylphenyl)-3,5-bis(trifluoromethyl)benzamide], for which the IC50 is not above 25 µM. Consider `Cc1ccc(C(=O)Nc2cccc(C(F)(F)F)c2)cc1-c1ccc2nc(NC3CC3)ncc2c1` [Example 29, 3-(2-(cyclopropylamino)-6-quinazolinyl)-4-methyl-N-(3-(trifluoromethyl)phenyl)benzamide], for which the IC50 was not above 25 µM.

In the case of `Cc1ccc(C(=O)Oc2c(F)c(F)c(F)c(F)c2F)cc1-c1ccc2nc(N)ncc2c1` [Example 423, Perfluorophenyl-3-(2-aminoquinazolin-6-yl)-4-methylbenzoate], the IC50 was not above 25 µM. Consider `Cc1c(NC(=O)c2cc(C(F)(F)F)ccc2F)cccc1-c1ccc2nc(N)ncc2c1` [Example 222, N-(3-(2-amino-6-quinazolinyl)-2-methylphenyl)-2-fluoro-5-(trifluoromethyl) benzamide], for which the IC50 was not above 25 µM.

As to `Cc1ccc(C(=O)OCc2ccccc2)cc1-c1ccc2nc(N)ncc2c1` [Example 160, phenylmethyl 3-(2-amino-6-quinazolinyl)-4-methylbenzoate], the IC50 was not above 25 µM. On to `Cc1ccc(F)c(NC(=O)c2ccc(C)c(-c3ccc4nc(N)ncc4c3)c2)c1` [Example 147, 3-(2-amino-6-quinazolinyl)-N-(2-fluoro-5-methylphenyl)-4-methylbenzamide], for which the IC50 is not above 25 µM. Regarding `Cc1ccc(C(=O)Nc2nc3cc(Cl)ccc3o2)cc1-c1ccc2nc(N)ncc2c1` [Example 342, 3-(2-amino-6-quinazolinyl)-N-(5-chloro-1,3-benzoxazol-2-yl)-4-methylbenzamide], the IC50 is not above 25 µM. As to `Cc1ccc(C(=O)Nc2cc(C(F)(F)F)ccc2N2CCCC2)cc1-c1ccc2nc(N)ncc2c1` [Example 80, 3-(2-amino-6-quinazolinyl)-4-methyl-N-(2-(1-pyrrolidinyl)-5-(trifluoromethyl)phenyl)benzamide], the IC50 is not above 25 µM. Consider `CCN(CC)CC(=O)Nc1cccc(NC(=O)c2ccc(C)c(-c3ccc4nc(N)ncc4c3)c2)c1C` [Example 63, 3-(2-amino-6-quinazolinyl)-N-(3-((N,N-diethylglycyl)amino)-2-methyiphenyl)-4-methylbenzamide], for which the IC50 is not above 25 µM.

As for `CNc1ncc2cc(-c3cc(NC(=O)c4cccc(C(F)(F)F)c4)ccc3C)cnc2n1` [Example 199, N-(4-methyl-3-(2-(methylamino)pyrido[2,3-d]pyrimidin-6-yl)phenyl)-3-(trifluoromethyl) benzamide], the IC50 is not above 25 µM. In the case of `CNc1ncc2cc(-c3cc(NC(=O)c4cc(F)cc(C(F)(F)F)c4)ccc3C)cnc2n1` [Example 217, 3-fluoro-N-(4-methyl-3-(2-(methylamino)pyrido[2,3-d]pyrimidin-6-yl)phenyl)-5-(trifluoromethyl) benzamide], the IC50 is not above 25 µM. As for `Cc1ccc(C(=O)Nc2ncccc2O)cc1-c1ccc2nc(N)ncc2c1` [Example 361, 3-(2-amino-6-quinazolinyl)-N-(3-hydroxy-2-pyridinyl)-4-methylbenzamide], the IC50 is not above 25 µM. Consider `Cc1ccc(C(=O)Nc2cccc(C(F)(F)F)c2C)cc1-c1ccc2nc(NCCN3CCCC3)ncc2c1` [Example 33, 4-methyl-N-(2-methyl-3-(trifluoromethyl)phenyl)-3-(2-((2-(1-pyrrolidinyl)ethyl)amino)-6-quinazolinyl) benzamide], for which the IC50 was not above 25 µM. In the case of `Cc1ccc(C(=O)Nc2ccc(F)cc2F)cc1-c1ccc2nc(N)ncc2c1` [Example 424, 3-(2-amino-6-quinazolinyl)-N-(2,4-difluorophenyl)-4-methylbenzamide], the IC50 was not above 25 µM. Regarding `Cc1ccc(C(=O)Nc2cc(C(F)(F)F)ccc2C(C)(C)CN(C)C)cc1-c1ccc2nc(N)ncc2c1` [Example 83, 3-(2-amino-6-quinazolinyl)-N-(2-(2-(dimethylamino)-1,1-dimethylethyl)-5-(trifluoromethyl)phenyl)-4-methylbenzamide], the IC50 is not above 25 µM. With `Nc1ncc2cc(-c3cc(C(=O)Nc4cc(C(F)(F)F)ccc4N4CCCC4)ccc3Cl)ccc2n1` [Example 155, 3-(2-amino-6-quinazolinyl)-4-chloro-N-(2-(1-pyrrolidinyl)-5-(trifluoromethyl)phenyl)benzamide] the figure was not above 25 µM; with `Nc1ncc2cc(-c3cc(C(=O)Nc4cc(C(F)(F)F)ccc4N4CCCCC4)ccc3Cl)ccc2n1` [Example 156, 3-(2-amino-6-quinazolinyl)-4-chloro-N-(2-(1-piperidinyl)-5-(trifluoromethyl)phenyl)benzamide], not above 25 µM. Then `Cc1cc(NC(=O)c2ccc(C)c(-c3ccc4nc(N)ncc4c3)c2)on1` [Example 323, 3-(2-amino-6-quinazolinyl)-4-methyl-N-(3-methyl-5-isoxazolyl)benzamide], with not above 25 µM. As for `Cc1ccc(C(=O)Nc2ncc(Cl)cc2Cl)cc1-c1ccc2nc(N)ncc2c1` [Example 346, 3-(2-amino-6-quinazolinyl)-N-(3,5-dichloro-2-pyridinyl)-4-methylbenzamide], the IC50 is not above 25 µM.

Consider `Cc1ccc(NC(=O)c2cc(C(F)(F)F)ccc2N(C)CCCN(C)C)cc1-c1ccc2nc(N)ncc2c1` [Example 431, N-(3-(2-amino-6-quinazolinyl)-4-methylphenyl)-2-((3-(dimethylamino)propyl)(methyl)amino)-5-(trifluoromethyl)benzamide], for which the IC50 is not above 25 µM. For `Cc1ccc(C(=O)Nc2ncccc2OCc2ccccc2)cc1-c1ccc2nc(N)ncc2c1` [Example 358, 3-(2-amino-6-quinazolinyl)-4-methyl-N-(3-((phenylmethyl)oxy)-2-pyridinyl)benzamide], the IC50 was not above 25 µM. As for `Cc1ccc(C(=O)Nc2ccc3c(c2)N(C(=O)CN2CCOCC2)CC3(C)C)cc1-c1ccc2nc(N)ncc2c1` [Example 65, 3-(2-amino-6-quinazolinyl)-N-(3,3-dimethyl-1-(4-morpholinytacetyl)-2,3-dihydro-1H-indol-6-yl)-4-methylbenzamide], the IC50 was not above 25 µM.

On to `Cc1csc(NC(=O)c2ccc(C)c(-c3ccc4nc(N)ncc4c3)c2)n1` [Example 341, 3-(2-amino-6-quinazolinyl)-4-methyl-N-(4-thiazol-2-yl)benzamide], for which the IC50 was not above 25 µM.

Consider `CNc1ncc2cc(-c3cc(NC(=O)c4cc(C(F)(F)F)cc(C(F)(F)F)c4)ccc3C)cnc2n1` [Example 200, N-(4-methyl-3-(2-(methylamino)pyrido[2,3-d]pyrimidin-6-yl)phenyl)-3,5-bis(trifluoromethyl)benzamide], for which the IC50 was not above 25 µM. On to `Cc1ccc(C(=O)Nc2cc(C(F)(F)F)ccn2)cc1-c1ccc2nc(N)ncc2c1` [Example 345, 3-(2-amino-6-quinazolinyl)-4-methyl-N-(4-(trifluoromethyl)-2-pyridinyl)benzamide], for which the IC50 was not above 25 µM. `Nc1ncc2cc(-c3cccc(C(=O)Nc4cc(C(F)(F)F)ccc4N4CCCCC4)c3)ccc2n1` [Example 54, 3-(2-amino-6-quinazolinyl)-N-(2-(1-piperidinyl)-5-(trifluoromethyl)phenyl)benzamide]: the IC50 was not above 25 µM.
